In ChEMBL document CHEMBL3228023, “Paradoxical effects of N-cyanoalkyl substituents upon the activities of several classes of opioids” (J Med Chem, 1979):
Structures can show the parent of a compound that is named as a salt. Active and inactive are the calls of the source. The rule behind the calls is not given here.

What was measured:
Mus musculus [1] = assay: Antinociceptive activity in sc dosed mouse by Eddy-hot plate assay; assay type: functional
Mus musculus [2] = assay: Antinociceptive activity in sc dosed mouse by Nilsen assay; assay type: functional
Opioid receptor = Opioid receptor (Rattus norvegicus, UniProt P33533+P34975+P33535); assay: Binding affinity to opiate receptor in rat brain homogenates; assay type: tissue-based
[3] = Binding affinity to opiate receptor in mouse/rat NG108-15 hybrid cells
Mus musculus [4] = assay: Antinociceptive activity in sc dosed mouse by Eddy-hot plate assay in presence of naloxone; assay type: functional, organism-based
Mus musculus [5] = assay: Antinociceptive activity in Swiss-webster mouse at 1.6 umol/kg, sc by tail-flick assay in presence of 0.08 to 8.5 umol/kg naloxone; assay type: functional, organism-based
Rhesus monkey [6] = assay: Acute toxicity in rhesus monkey assessed as withdrawal signs at 96 mg/kg by single-dose suppression test; assay type: organism-based, Macaca mulatta; design: dose 96 mg/kg; conditions: in vivo
Rhesus monkey [7] = assay: Acute toxicity in rhesus monkey assessed as withdrawal signs at 24 to 96 mg/kg by precipitated withdrawal test; assay type: organism-based, Macaca mulatta; design: dose 24-96 mg/kg; conditions: in vivo
[8] = Acute toxicity in sc dosed mouse; assay type: organism-based; conditions: in vivo
Mus musculus [9] = assay: Ratio of morphine ED50 to compound ED50 for antinociceptive activity in sc dosed mouse by Eddy-hot plate assay; assay type: functional
Mus musculus [10] = assay: Antinociceptive activity in Swiss-webster mouse at 1.6 umol/kg, sc by tail-flick assay; assay type: functional
Rhesus monkey [11] = assay: Narcotic antagonist activity in rhesus monkey […]; assay type: organism-based, Macaca mulatta; conditions: in vivo
Rhesus monkey [12] = assay: Acute toxicity in rhesus monkey assessed as minimal CNS depression at 1.5 to 36 mg/kg by single-dose suppression test; assay type: organism-based, Macaca mulatta, Central nervous system; design: dose 1.5-36 mg/kg; conditions: in vivo
Rhesus monkey [13] = assay: Acute toxicity in rhesus monkey assessed as tremors at 36 mg/kg by single-dose suppression test; assay type: organism-based, Macaca mulatta; design: dose 36 mg/kg; conditions: in vivo
Rhesus monkey [14] = assay: Narcotic antagonist activity in rhesus monkey at 1 to 2 mg/kg by precipitated withdrawal test; assay type: organism-based, Macaca mulatta; design: dose 1-2 mg/kg; conditions: in vivo
Rhesus monkey [15] = assay: Acute toxicity in rhesus monkey assessed as ataxia and mild stupor at 1 to 2 mg/kg by single-dose suppression test; assay type: organism-based, Macaca mulatta; design: dose 1-2 mg/kg; conditions: in vivo
Mus musculus [16] = assay: Antinociceptive activity in mouse at 100 mg/kg, sc by Eddy-hot plate assay; assay type: functional, organism-based; design: dose 100 mg/kg
[17] = Therapeutic ratio of LD50 for sc dosed mouse to ED50 for antinociceptive activity in sc dosed mouse by Eddy-hot plate assay; conditions: in vivo
Rhesus monkey [18] = assay: Acute toxicity in rhesus monkey assessed as exacerbation of withdrawal at 0.005 to 0.04 mg/kg by single-dose suppression test; assay type: organism-based, Macaca mulatta; design: dose 0.005-0.04 mg/kg; conditions: in vivo
Rhesus monkey [19] = assay: Acute toxicity in rhesus monkey assessed as salivation at 0.005 to 0.02 mg/kg by single-dose suppression test; assay type: organism-based, Macaca mulatta; design: dose 0.005-0.02 mg/kg; conditions: in vivo
Rhesus monkey [20] = assay: Physical dependence capacity in rhesus monkey at 12 mg/kg by single-dose suppression test; assay type: ADME, organism-based, Macaca mulatta; design: dose 12 mg/kg; conditions: in vivo
Rhesus monkey [21] = assay: Acute toxicity in rhesus monkey at 3 to 12 mg/kg by single-dose suppression test; assay type: organism-based, Macaca mulatta; design: dose 3-12 mg/kg; conditions: in vivo
Mus musculus [22] = assay: Ratio of morphine ED50 to compound ED50 for antinociceptive activity in sc dosed mouse by Nilsen assay; assay type: functional
Rhesus monkey [23] = assay: Acute toxicity in rhesus monkey assessed as CNS depression at 0.625 to 5 mg/kg by single-dose suppression test in presence of naloxone; assay type: organism-based, Macaca mulatta, Central nervous system; design: dose 0.625-5 mg/kg; conditions: in vivo
Rhesus monkey [24] = assay: Acute toxicity in rhesus monkey assessed as CNS depression at 0.625 to 5 mg/kg by single-dose suppression test; assay type: organism-based, Macaca mulatta, Central nervous system; design: dose 0.625-5 mg/kg; conditions: in vivo
Rhesus monkey [25] = assay: Acute toxicity in rhesus monkey assessed as minimal CNS depression at 1.5 to 12 mg/kg by single-dose suppression test; assay type: organism-based, Macaca mulatta, Central nervous system; design: dose 1.5-12 mg/kg; conditions: in vivo
Mus musculus [26] = assay: Antinociceptive activity in mouse at 100 mg/kg, sc by Nilsen assay; assay type: functional, organism-based; design: dose 100 mg/kg
Rhesus monkey [27] = assay: Acute toxicity in rhesus monkey at 10 to 40 mg/kg by single-dose suppression test; assay type: organism-based, Macaca mulatta; design: dose 10-40 mg/kg; conditions: in vivo
Mus musculus [28] = organism: Mus musculus
Rhesus monkey [29] = assay: Acute toxicity in rhesus monkey assessed as salivation at 0.25 to 2 mg/kg by single-dose suppression test; assay type: organism-based, Macaca mulatta; design: dose 0.25-2 mg/kg; conditions: in vivo
Rhesus monkey [30] = assay: Acute toxicity in rhesus monkey assessed as head tremors, covulsiona, ataxia at 2 mg/kg by single-dose suppression test; assay type: organism-based, Macaca mulatta; design: dose 2 mg/kg; conditions: in vivo
Rhesus monkey [31] = assay: Acute toxicity in rhesus monkey assessed as ataxia at 0.32 to 2.56 mg/kg by single-dose suppression test; assay type: organism-based, Macaca mulatta; design: dose 0.32-2.56 mg/kg; conditions: in vivo
Rhesus monkey [32] = assay: Acute toxicity in rhesus monkey assessed as tremors at 0.64 to 2.56 mg/kg by single-dose suppression test; assay type: organism-based, Macaca mulatta; design: dose 0.64-2.56 mg/kg; conditions: in vivo
Rhesus monkey [33] = assay: Acute toxicity in rhesus monkey assessed as rigidity at 2.56 mg/kg by single-dose suppression test; assay type: organism-based, Macaca mulatta; design: dose 2.56 mg/kg; conditions: in vivo
Rhesus monkey [34] = assay: Narcotic antagonist activity in rhesus monkey at 0.32 to 1.28 mg/kg by precipitated withdrawal test; assay type: organism-based, Macaca mulatta; design: dose 0.32-1.28 mg/kg; conditions: in vivo
Rhesus monkey [35] = assay: Physical dependence capacity in rhesus monkey at 0.16 to 2.56 mg/kg by single-dose suppression test; assay type: ADME, organism-based, Macaca mulatta; design: dose 0.16-2.56 mg/kg; conditions: in vivo
[36] = Mus musculus, sc, read-out: ED50

CN1CC[C@]23CCCC[C@H]2[C@H]1Cc1ccc(O)cc13.O=C(O)C(O)C(O)C(=O)O
ED50 (Mus musculus [1]; [36]): 0.49 µmol/kg
ED50 (Mus musculus [2]; [36]): 0.54 µmol/kg
EC50 (Opioid receptor): 0.7 µM
EC50 [3]: 0.2 µM

N#CCCN1CC[C@]23CCCCC2C1Cc1ccc(O)cc13 (stereo partly specified)
Activity (Mus musculus [4]): inactive
Activity (Mus musculus [5]): inactive

CN1CC[C@]23c4c5ccc(O)c4O[C@H]2C(=O)CC[C@@]3(O)[C@H]1C5 [OXYMORPHONE HYDROCHLORIDE]
ED50 (Mus musculus [1]; [36]): 0.27 µmol/kg

COc1ccc2c3c1O[C@H]1[C@@H](O)C=CC4C(C2)N(CCC#N)CC[C@@]341 (single isomer, unassigned; (-))
EC50 (Opioid receptor): 700 µM
Activity (Rhesus monkey [6]): Toxic
Activity (Rhesus monkey [7]): Toxic

Cl.N#CCCN1CC[C@]23CCCCC2C1Cc1ccc(O)cc13.O (stereo partly specified)
LD50 [8]: 534 mg/kg
Ratio ED50 (Mus musculus [9]): 50
Activity (Mus musculus [10]): 100%

N#CCCN1CC[C@]23c4c5ccc(O)c4O[C@H]2[C@@H](O)C=CC3C1C5 (single isomer, unassigned; (-))
ED50 (Mus musculus [1]; [36]): 8.3 µmol/kg
ED50 (Mus musculus [2]; [36]): 33 µmol/kg
EC50 (Opioid receptor): 20 µM
EC50 [3]: 1 µM
Activity (Rhesus monkey [11]): Toxic
Activity (Rhesus monkey [12]): Toxic
Activity (Rhesus monkey [13]): Toxic

CN1CC[C@]23c4c5ccc(O)c4O[C@H]2[C@@H](O)C=C[C@H]3[C@H]1C5
ED50 (Mus musculus [1]; [36]): 3.3 µmol/kg
ED50 (Mus musculus [2]; [36]): 4.1 µmol/kg
EC50 [3]: 1.5 µM

C[C@H]1C2Cc3ccc(O)cc3C1(C)CCN2CCCC#N (mixture of isomers)
ED50 (Mus musculus [1]; [36]): 2.4 µmol/kg
ED50 (Mus musculus [2]; [36]): 1.5 µmol/kg
EC50 (Opioid receptor): 4 µM
Activity (Rhesus monkey [14]): Toxic
Activity (Rhesus monkey [15]): Toxic

N#CCN1CC[C@]23CCCCC2C1Cc1ccc(O)cc13 (single isomer, unassigned; (-))
ED50 (Mus musculus [1]; [36]): 5.3 µmol/kg
ED50 (Mus musculus [2]; [36]): 13.2 µmol/kg
EC50 (Opioid receptor): 7 µM

Br.C[C@H]1C2Cc3ccc(O)cc3C1(C)CCN2CCC#N (single isomer, unassigned; (-))
LD50 [8]: 489 mg/kg

C[C@H]1C2Cc3ccc(O)cc3C1(C)CCN2CCC#N (single isomer, unassigned; (+)) [listing 1 of 2 here]
Activity (Mus musculus [16]): inactive

Br.CC1C2Cc3ccc(O)cc3C1(C)CCN2C (single isomer, unassigned; (-))
ED50 (Mus musculus [1]; [36]): 2 µmol/kg
ED50 (Mus musculus [2]; [36]): 1.5 µmol/kg
EC50 (Opioid receptor): 4 µM
EC50 [3]: 0.4 µM

N#CCCN1CC[C@]23CCCCC2C1Cc1ccc(O)cc13 (single isomer, unassigned; (-))
ED50 (Mus musculus [1]; [36]): 0.07 µmol/kg
ED50 (Mus musculus [2]; [36]): 0.14 µmol/kg
EC50 (Opioid receptor): 1.5 µM
EC50 [3]: 0.015 µM
selectivity ratio [17]: 23000
Activity (Rhesus monkey [18]): Toxic
Activity (Rhesus monkey [19]): Toxic

COc1ccc2c3c1O[C@H]1[C@@H](O)C=C[C@H]4[C@@H](C2)N(C)CC[C@@]341.COc1ccc2c3c1O[C@H]1[C@@H](O)C=C[C@H]4[C@@H](C2)N(C)CC[C@@]341.O.O=P(O)(O)O.O=P(O)(O)O [CODEINE PHOSPHATE]
ED50 (Mus musculus [1]; [36]): 14.6 µmol/kg
ED50 (Mus musculus [2]; [36]): 20.4 µmol/kg
Activity (Rhesus monkey [20]): Toxic
Activity (Rhesus monkey [21]): Toxic

Br.C[C@H]1C2Cc3ccc(O)cc3C1(C)CCN2CCC#N (mixture of isomers)
Ratio ED50 (Mus musculus [9]): 12
Ratio ED50 (Mus musculus [22]): 12

C[C@H]1C2Cc3ccc(O)cc3C1(C)CCN2CC#N (mixture of isomers)
ED50 (Mus musculus [1]; [36]): 22.2 µmol/kg
ED50 (Mus musculus [2]; [36]): 39.1 µmol/kg
EC50 (Opioid receptor): 20 µM
Activity (Rhesus monkey [23]): Toxic
Activity (Rhesus monkey [24]): Toxic

N#CCCN1CC[C@]23CCCCC2C1Cc1ccc(O)cc13 (single isomer, unassigned; (+))
Activity (Mus musculus [16]): inactive

C[C@H]1C2Cc3ccc(O)cc3C1(C)CCN2CCC#N (single isomer, unassigned; (+)) [listing 2 of 2 here]
Activity (Rhesus monkey [25]): Toxic

COc1ccc2c3c1O[C@H]1C(=O)CC[C@@]4(O)C(C2)N(CCC#N)CC[C@]314 (single isomer, unassigned; (-))
Activity (Mus musculus [26]): inactive
EC50 (Opioid receptor): 60 µM
Activity (Rhesus monkey [27]): Non-toxic
ED50 (Mus musculus [28]): inactive

C[C@H]1C2Cc3ccc(O)cc3C1(C)CCN2CCC#N (mixture of isomers)
ED50 (Mus musculus [1]): 0.26 µmol/kg
Activity (Rhesus monkey [29]): Toxic
ED50 (Mus musculus [2]): 0.31 µmol/kg
EC50 (Opioid receptor): 3 µM
Activity (Rhesus monkey [30]): Toxic

C[C@H]1C2Cc3ccc(O)cc3C1(C)CCN2CCC#N (single isomer, unassigned; (-))
ED50 (Mus musculus [1]): 0.11 µmol/kg
ED50 (Mus musculus [2]): 0.03 µmol/kg
EC50 (Opioid receptor): 3 µM
EC50 [3]: 0.08 µM
selectivity ratio [17]: 13000
Activity (Rhesus monkey [31]): Toxic
Activity (Rhesus monkey [32]): Toxic
Activity (Rhesus monkey [33]): Toxic
Activity (Rhesus monkey [34]): Toxic
Activity (Rhesus monkey [35]): Non-toxic
